The supplement of paper PMC13386468

Experiments:
Experiment in all cases: IC50 for competition of protein binding to Kinobeads
Settings in all cases: assay detail: Kinobeads competition in P. falciparum blood-stage lysate
UniProt C0H4K8 = target: UniProt C0H4K8
UniProt C0H5I7 = target: UniProt C0H5I7
UniProt C6KSZ6 = target: UniProt C6KSZ6
UniProt C6KT25 = target: UniProt C6KT25
UniProt C6KT50 = target: UniProt C6KT50
UniProt C6KTA4 = target: UniProt C6KTA4
UniProt C6KTB1 = target: UniProt C6KTB1
UniProt C6KTB9 = target: UniProt C6KTB9
UniProt C6KTC7 = target: UniProt C6KTC7
UniProt O96212 = target: UniProt O96212
UniProt O97247 = target: UniProt O97247
UniProt O97249 = target: UniProt O97249
UniProt O97250 = target: UniProt O97250
UniProt Q7K6A8 = target: UniProt Q7K6A8
UniProt Q8I207 = target: UniProt Q8I207
UniProt Q8I266 = target: UniProt Q8I266
UniProt Q8I320 = target: UniProt Q8I320
UniProt Q8I3T5 = target: UniProt Q8I3T5
UniProt Q8I3W0 = target: UniProt Q8I3W0
UniProt Q8I468 = target: UniProt Q8I468
UniProt Q8I492 = target: UniProt Q8I492
UniProt Q8I4W4 = target: UniProt Q8I4W4
UniProt Q8I501 = target: UniProt Q8I501
UniProt Q8I526 = target: UniProt Q8I526
UniProt Q8I5A4 = target: UniProt Q8I5A4
UniProt Q8I5X8 = target: UniProt Q8I5X8
UniProt Q8IB78 = target: UniProt Q8IB78
UniProt Q8ID31 = target: UniProt Q8ID31
UniProt Q8ID43 = target: UniProt Q8ID43
UniProt Q8ID59 = target: UniProt Q8ID59
UniProt Q8IDF9 = target: UniProt Q8IDF9
UniProt Q8IDG3 = target: UniProt Q8IDG3
UniProt Q8IE41 = target: UniProt Q8IE41
UniProt Q8IEF0 = target: UniProt Q8IEF0
UniProt Q8IEU2 = target: UniProt Q8IEU2
UniProt Q8IFM0 = target: UniProt Q8IFM0
UniProt Q8IHR6 = target: UniProt Q8IHR6
UniProt Q8IIA4 = target: UniProt Q8IIA4
UniProt Q8IIB7 = target: UniProt Q8IIB7
UniProt Q8IIJ9 = target: UniProt Q8IIJ9
UniProt Q8IIV2 = target: UniProt Q8IIV2
UniProt Q8IJC6 = target: UniProt Q8IJC6
UniProt Q8IJT8 = target: UniProt Q8IJT8
UniProt Q8IKW5 = target: UniProt Q8IKW5
UniProt Q8ILA4 = target: UniProt Q8ILA4
UniProt Q8ILI2 = target: UniProt Q8ILI2
UniProt Q8ILW9 = target: UniProt Q8ILW9
UniProt Q8ILY8 = target: UniProt Q8ILY8
UniProt Q8IM26 = target: UniProt Q8IM26
UniProt Q8IM38 = target: UniProt Q8IM38
UniProt Q9U0N4 = target: UniProt Q9U0N4
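Also: native unpurified kinases from lysate captured on beads bearing immobilized kinase inhibitors, with bead-bound kinases quantified by mass spectrometry across compound doses.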

Sequence of UniProt Q8IIJ9 (Q8IIJ9 whole entry): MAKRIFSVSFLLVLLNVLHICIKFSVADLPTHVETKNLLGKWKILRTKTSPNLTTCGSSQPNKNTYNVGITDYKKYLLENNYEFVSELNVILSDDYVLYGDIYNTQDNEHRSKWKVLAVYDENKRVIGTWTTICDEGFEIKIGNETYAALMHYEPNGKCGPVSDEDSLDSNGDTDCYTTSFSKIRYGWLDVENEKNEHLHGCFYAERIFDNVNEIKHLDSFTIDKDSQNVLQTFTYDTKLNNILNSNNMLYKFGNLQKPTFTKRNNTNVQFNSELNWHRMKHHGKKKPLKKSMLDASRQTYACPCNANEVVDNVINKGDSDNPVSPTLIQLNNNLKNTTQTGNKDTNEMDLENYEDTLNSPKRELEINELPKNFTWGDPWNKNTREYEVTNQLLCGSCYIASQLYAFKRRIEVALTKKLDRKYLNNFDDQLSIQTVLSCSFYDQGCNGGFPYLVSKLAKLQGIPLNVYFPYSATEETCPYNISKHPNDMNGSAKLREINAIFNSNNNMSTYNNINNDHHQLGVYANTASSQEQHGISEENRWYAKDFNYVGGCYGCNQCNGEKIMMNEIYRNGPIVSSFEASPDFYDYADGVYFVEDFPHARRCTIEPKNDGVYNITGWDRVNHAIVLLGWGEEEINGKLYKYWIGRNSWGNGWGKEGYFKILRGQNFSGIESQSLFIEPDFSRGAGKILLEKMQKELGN
Sequence of UniProt C6KT50 (C6KT50 whole entry): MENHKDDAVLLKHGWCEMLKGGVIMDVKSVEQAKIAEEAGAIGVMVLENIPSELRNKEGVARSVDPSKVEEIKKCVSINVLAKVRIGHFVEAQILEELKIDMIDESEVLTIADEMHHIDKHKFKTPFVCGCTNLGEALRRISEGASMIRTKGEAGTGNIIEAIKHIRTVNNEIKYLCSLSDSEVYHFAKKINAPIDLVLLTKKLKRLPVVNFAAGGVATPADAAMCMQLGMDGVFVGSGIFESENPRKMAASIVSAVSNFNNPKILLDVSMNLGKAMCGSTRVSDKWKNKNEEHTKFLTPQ
Sequence of UniProt Q8ILW9 (Q8ILW9 whole entry): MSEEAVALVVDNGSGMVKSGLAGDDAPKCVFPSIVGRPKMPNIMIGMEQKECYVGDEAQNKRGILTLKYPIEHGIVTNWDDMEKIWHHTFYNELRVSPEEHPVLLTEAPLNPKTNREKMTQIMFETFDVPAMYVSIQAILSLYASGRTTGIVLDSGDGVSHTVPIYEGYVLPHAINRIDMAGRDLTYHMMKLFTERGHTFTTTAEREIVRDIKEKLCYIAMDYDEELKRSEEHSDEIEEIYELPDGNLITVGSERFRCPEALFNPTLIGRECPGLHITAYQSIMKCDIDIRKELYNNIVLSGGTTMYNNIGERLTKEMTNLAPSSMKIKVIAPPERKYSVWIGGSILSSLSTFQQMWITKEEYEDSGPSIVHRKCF
Sequence of UniProt Q8I266 (Q8I266 whole entry): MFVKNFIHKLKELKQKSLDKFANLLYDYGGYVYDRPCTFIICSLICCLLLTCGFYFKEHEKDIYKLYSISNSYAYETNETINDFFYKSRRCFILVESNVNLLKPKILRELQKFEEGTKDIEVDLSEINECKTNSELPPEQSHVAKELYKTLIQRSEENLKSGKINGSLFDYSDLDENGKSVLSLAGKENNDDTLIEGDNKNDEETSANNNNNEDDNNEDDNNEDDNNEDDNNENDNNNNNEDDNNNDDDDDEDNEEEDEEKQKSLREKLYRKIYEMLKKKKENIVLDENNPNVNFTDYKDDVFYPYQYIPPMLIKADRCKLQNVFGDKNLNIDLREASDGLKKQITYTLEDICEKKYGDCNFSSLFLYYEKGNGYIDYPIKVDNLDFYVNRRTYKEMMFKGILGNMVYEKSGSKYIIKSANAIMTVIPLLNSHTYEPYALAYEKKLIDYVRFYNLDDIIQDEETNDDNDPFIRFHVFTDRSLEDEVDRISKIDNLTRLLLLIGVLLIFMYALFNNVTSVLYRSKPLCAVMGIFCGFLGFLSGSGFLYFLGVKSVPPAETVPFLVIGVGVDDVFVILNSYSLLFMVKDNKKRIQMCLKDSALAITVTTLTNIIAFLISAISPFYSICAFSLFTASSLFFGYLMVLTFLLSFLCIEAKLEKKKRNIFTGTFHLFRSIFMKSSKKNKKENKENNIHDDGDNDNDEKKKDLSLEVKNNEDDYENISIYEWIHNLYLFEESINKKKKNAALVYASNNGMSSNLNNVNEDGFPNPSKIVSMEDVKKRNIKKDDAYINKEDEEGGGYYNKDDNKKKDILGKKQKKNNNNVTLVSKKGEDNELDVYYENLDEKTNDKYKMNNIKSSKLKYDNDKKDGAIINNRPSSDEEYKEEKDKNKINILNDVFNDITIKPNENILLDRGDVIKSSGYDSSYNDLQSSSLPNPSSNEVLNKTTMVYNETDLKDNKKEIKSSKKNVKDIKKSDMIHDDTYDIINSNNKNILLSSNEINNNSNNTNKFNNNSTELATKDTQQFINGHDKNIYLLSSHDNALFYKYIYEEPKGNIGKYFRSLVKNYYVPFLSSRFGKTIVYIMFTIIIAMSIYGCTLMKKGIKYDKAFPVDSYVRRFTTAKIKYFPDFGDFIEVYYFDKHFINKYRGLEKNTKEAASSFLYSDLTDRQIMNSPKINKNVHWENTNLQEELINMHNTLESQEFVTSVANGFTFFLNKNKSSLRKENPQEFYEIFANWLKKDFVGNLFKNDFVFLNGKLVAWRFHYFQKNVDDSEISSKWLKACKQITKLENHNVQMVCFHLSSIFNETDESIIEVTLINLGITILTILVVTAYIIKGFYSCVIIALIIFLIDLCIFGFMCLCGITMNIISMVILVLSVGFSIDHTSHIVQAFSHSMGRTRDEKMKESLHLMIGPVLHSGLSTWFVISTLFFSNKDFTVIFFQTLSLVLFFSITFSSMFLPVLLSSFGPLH
Sequence of UniProt O97249 (O97249 whole entry): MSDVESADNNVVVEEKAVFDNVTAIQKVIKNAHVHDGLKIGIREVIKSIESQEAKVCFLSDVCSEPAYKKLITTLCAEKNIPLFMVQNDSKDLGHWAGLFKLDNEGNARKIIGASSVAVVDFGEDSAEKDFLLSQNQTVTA

In the case of O=c1[nH]c2ccc(Cl)cc2c(NC2CN3CCC2CC3)c1-c1nc2ccccc2[nH]1 (stereo unspecified) [CHIR-124], the IC50 (UniProt C0H4K8) is reported as greater than 20 µM, the IC50 (UniProt C0H5I7) is reported as greater than 20 µM and the IC50 (UniProt C6KSZ6) is reported as 2.22 µM. It also gave an IC50 (UniProt C6KT25) greater than 20 µM, an IC50 (UniProt C6KT50) greater than 20 µM and an IC50 (UniProt C6KTA4) greater than 20 µM. It also gave an IC50 (UniProt C6KTB1) greater than 20 µM, an IC50 (UniProt C6KTB9) greater than 20 µM and an IC50 (UniProt C6KTC7) greater than 20 µM. For the same compound, the IC50 (UniProt O96212) was greater than 20 µM, the IC50 (UniProt O97247) was greater than 20 µM and the IC50 (UniProt O97249) was greater than 20 µM. For the same compound, the IC50 (UniProt O97250) was greater than 20 µM, the IC50 (UniProt Q7K6A8) was greater than 20 µM and the IC50 (UniProt Q8I207) was greater than 20 µM. The IC50 (UniProt Q8I266) was greater than 20 µM, the IC50 (UniProt Q8I320) was greater than 20 µM and the IC50 (UniProt Q8I3T5) was greater than 20 µM. The IC50 (UniProt Q8I3W0) was greater than 20 µM, the IC50 (UniProt Q8I468) was greater than 20 µM and the IC50 (UniProt Q8I492) was greater than 20 µM. It also gave an IC50 (UniProt Q8I4W4) greater than 20 µM, an IC50 (UniProt Q8I501) greater than 20 µM and an IC50 (UniProt Q8I526) greater than 20 µM. The IC50 (UniProt Q8I5A4) was greater than 20 µM, the IC50 (UniProt Q8I5X8) was greater than 20 µM and the IC50 (UniProt Q8IB78) was greater than 20 µM. For the same compound, the IC50 (UniProt Q8ID31) was greater than 20 µM, the IC50 (UniProt Q8ID43) was greater than 20 µM and the IC50 (UniProt Q8ID59) was greater than 20 µM. For the same compound, the IC50 (UniProt Q8IDF9) was greater than 20 µM, the IC50 (UniProt Q8IDG3) was greater than 20 µM and the IC50 (UniProt Q8IE41) was 0.375 µM. It also gave an IC50 (UniProt Q8IEF0) greater than 20 µM, an IC50 (UniProt Q8IEU2) greater than 20 µM and an IC50 (UniProt Q8IFM0) greater than 20 µM. For the same compound, the IC50 (UniProt Q8IHR6) was greater than 20 µM, the IC50 (UniProt Q8IIA4) was greater than 20 µM and the IC50 (UniProt Q8IIB7) was greater than 20 µM. It also gave an IC50 (UniProt Q8IIJ9) greater than 20 µM, an IC50 (UniProt Q8IIV2) greater than 20 µM and an IC50 (UniProt Q8IJC6) greater than 20 µM. The IC50 (UniProt Q8IJT8) was greater than 20 µM, the IC50 (UniProt Q8IKW5) was greater than 20 µM and the IC50 (UniProt Q8ILA4) was greater than 20 µM. It also gave an IC50 (UniProt Q8ILI2) greater than 20 µM, an IC50 (UniProt Q8ILW9) greater than 20 µM and an IC50 (UniProt Q8ILY8) greater than 20 µM. For the same compound, the IC50 (UniProt Q8IM26) was greater than 20 µM, the IC50 (UniProt Q8IM38) was greater than 20 µM and the IC50 (UniProt Q9U0N4) was greater than 20 µM.
